Experimental data as given in ChEMBL document CHEMBL3774391, “Novel nicotine analogues with potential anti-mycobacterial activity” (Bioorg Med Chem, 2016).
≈ marks a conversion by molar mass, not a printed value. Calls of active or inactive are those of the source. The rule behind the calls is not given here.

Legend:
[1] = system: Mycobacterium tuberculosis; assay: Antimycobacterial activity against Mycobacterium tuberculosis clinical isolate assessed as growth inhibition after 28 days; assay type: functional, organism-based
[2] = system: Mycobacterium tuberculosis; assay: Antimycobacterial activity against Mycobacterium tuberculosis H37Rv […] assessed as confluent growth at 50 ug/ml after 28 days by Lowenstein-Jensen method; assay type: functional, organism-based
[3] = system: Mycobacterium tuberculosis; assay: Antimycobacterial activity against Mycobacterium tuberculosis H37Rv […] assessed as bacterial colonies at 200 ug/ml after 28 days by Lowenstein-Jensen method; assay type: functional
[4] = molecular target: Neuronal acetylcholine receptor; alpha4/beta2 (Homo sapiens) (UniProt P17787+P43681); assay: Displacement of [3H]cytisine from human recombinant alpha4beta2 nACh receptor expressed in human SH-SY5Y cells at 1 X 10^-8 M to 1 X 10^-7 M; assay type: cell-based
[5] = system: Mycobacterium tuberculosis; assay: Antimycobacterial activity against Mycobacterium tuberculosis clinical isolate assessed as growth inhibition after 5 days by microplate Alamar blue assay; assay type: functional; details: 120 h
[6] = system: Mycobacterium tuberculosis; assay: Antimycobacterial activity against Mycobacterium tuberculosis H37Rv […] assessed as growth inhibition at 0.2 ug/ml after 28 days by Lowenstein-Jensen method; assay type: functional, organism-based
[7] = system: Mycobacterium tuberculosis; assay: Antimycobacterial activity against Mycobacterium tuberculosis H37Rv […] assessed as confluent growth at 200 ug/ml after 28 days by Lowenstein-Jensen method; assay type: functional, organism-based
[8] = Cmax in Wistar rat at 5 mg/kg, po; assay type: ADME, organism-based; set-up: dose 5 mg/kg, route oral; details: in vivo
[9] = Cmax in Wistar rat at 5 mg/kg, iv; assay type: ADME, organism-based; set-up: dose 5 mg/kg, route intravenous; details: in vivo
[10] = Tmax in Wistar rat at 5 mg/kg, iv; assay type: ADME, organism-based; details: in vivo
[11] = Half life in Wistar rat at 5 mg/kg, iv; assay type: ADME, organism-based; details: in vivo
[12] = Volume of distribution in Wistar rat at 5 mg/kg, iv; assay type: ADME, organism-based; details: in vivo
[13] = Tmax in Wistar rat at 5 mg/kg, po; assay type: ADME, organism-based; details: in vivo
[14] = Half life in Wistar rat at 5 mg/kg, po; assay type: ADME, organism-based; details: in vivo
[15] = system: Rattus norvegicus; assay: Volume of distribution in Wistar rat at 5 mg/kg, po; assay type: ADME, organism-based; details: in vivo
[16] = Toxicity in Wistar rat administered qd via oral gavage with repeated dose for 28 days; assay type: organism-based; details: in vivo
[17] = Acute toxicity in po dosed overnight fasted Wistar rat; assay type: organism-based; details: in vivo
[18] = system: Mycobacterium tuberculosis; assay: Antimycobacterial activity against Mycobacterium tuberculosis H37Rv […] assessed as bacterial colonies at 50 ug/ml after 28 days by Lowenstein-Jensen method; assay type: functional
[19] = system: Mycobacterium tuberculosis; assay: Antimycobacterial activity against Mycobacterium tuberculosis H37Rv […] assessed as growth inhibition at 40 ug/ml after 28 days by Lowenstein-Jensen method; assay type: functional, organism-based
[20] = Half life in po dosed Wistar rat plasma

## CN1CCC(C(=O)c2cncc(-c3ccc4ccccc4c3)c2)C1=O (stereo not given)
[1]
  Activity: inactive
[2]
  growth inhibition (GI): inactive
[3]
  Activity: >100

## COc1ccc(-c2cncc(C(=O)C3CCN(C)C3=O)c2)cc1 (stereo not given)
[1]
  Activity: inactive
[2]
  growth inhibition (GI): inactive
[3]
  Activity: >100
[4]
  inhibition: inactive

## NNC(=O)c1ccncc1 [ISONIAZID]
[5]
  MIC: 0.00145 µM (≈ 0.199 ng/mL)
[6]
  growth inhibition (GI): Active

## CN1CCC(C(=O)c2cncc(-c3cccc(F)c3)c2)C1=O (stereo not given)
[7]
  growth inhibition (GI): inactive
[1]
  Activity: inactive
[2]
  growth inhibition (GI): inactive

## CN1CCC(C(=O)c2cncc(-c3ccccc3)c2)C1=O (stereo not given)
[7]
  growth inhibition (GI): inactive
[1]
  Activity: inactive
[2]
  growth inhibition (GI): inactive
[4]
  inhibition: < 10%

## CC(=O)c1cccc(-c2cncc(C(=O)C3CCN(C)C3=O)c2)c1 (stereo not given)
[1]
  Activity: inactive
[2]
  growth inhibition (GI): inactive
[3]
  Activity: >100

## CN1CCC(C(=O)c2cncc(-c3ccc(F)cc3)c2)C1=O (stereo not given)
[7]
  growth inhibition (GI): inactive
[1]
  Activity: inactive
[2]
  growth inhibition (GI): inactive
[4]
  inhibition: inactive

## Cc1ccccc1-c1cncc(C(=O)C2CCN(C)C2=O)c1 (stereo not given)
[7]
  growth inhibition (GI): inactive
[1]
  Activity: inactive
[2]
  growth inhibition (GI): inactive

## COc1ccccc1-c1cncc(C(=O)C2CCN(C)C2=O)c1 (stereo not given)
[7]
  growth inhibition (GI): inactive
[1]
  Activity: inactive
[2]
  growth inhibition (GI): inactive

## Cc1ccc(-c2cncc(C(=O)C3CCN(C)C3=O)c2)cc1 (stereo not given)
[7]
  growth inhibition (GI): inactive
[1]
  Activity: inactive
[2]
  growth inhibition (GI): inactive

## CN1CCC(C(=O)c2cncc(-c3cc(Cl)ccc3Cl)c2)C1=O (stereo not given)
[5]
  MIC: 0.286 µM (≈ 100 ng/mL)

## CN1CCC(C(=O)c2cncc(-c3cccc(N)c3)c2)C1=O (stereo not given)
[7]
  growth inhibition (GI): inactive
[1]
  Activity: inactive
[2]
  growth inhibition (GI): inactive

## CN1CCC(C(=O)c2cncc(-c3ccc(Cl)c(Cl)c3)c2)C1=O (stereo not given)
[5]
  MIC: 0.179 µM (≈ 62.5 ng/mL)

## CN1CCC(C(=O)c2cncc(-c3ccccc3Cl)c2)C1=O (stereo not given)
[1]
  Activity: inactive
[2]
  growth inhibition (GI): inactive
[3]
  Activity: >100

## CN1CCC(C(=O)c2cncc(-c3cc(Cl)cc(Cl)c3)c2)C1=O (stereo not given)
[8]
  Cmax: 2860 ng/mL
[9]
  Cmax: 3370 ng/mL
[10]
  Tmax: 3 min
[11]
  half-life: 24 h
[5]
  MIC: 0.0286 µM (≈ 10 ng/mL)
[12]
  Vd: 23.2 L
[13]
  Tmax: 1 h
[1]
  Activity: inactive
[14]
  half-life: > 24 h
[15]
  Vd: 27.36 L
[16]
  LD50 at 672 h: > 2000 mg/kg
[3]
  Activity: >100
[4]
  inhibition: inactive
[17]
  LD50: > 2000 mg/kg
[18]
  Activity: >100

## Cc1cccc(-c2cncc(C(=O)C3CCN(C)C3=O)c2)c1 (stereo not given)
[1]
  Activity: inactive
[3]
  Activity: >100
[4]
  inhibition: < 10%
[18]
  Activity: >100

## COc1cccc(-c2cncc(C(=O)C3CCN(C)C3=O)c2)c1 (stereo not given)
[7]
  growth inhibition (GI): inactive
[1]
  Activity: inactive
[2]
  growth inhibition (GI): inactive
[4]
  inhibition: inactive

## CO[C@H]1/C=C/O[C@@]2(C)Oc3c(C)c(O)c4c(O)c(c(/C=N/N5CCN(C)CC5)c(O)c4c3C2=O)NC(=O)/C(C)=C\C=C\[C@H](C)[C@H](O)[C@@H](C)[C@@H](O)[C@@H](C)[C@H](OC(C)=O)[C@@H]1C
[19]
  growth inhibition (GI): Active

## CN1CCC(C(=O)c2cncc(-c3cccc(O)c3)c2)C1=O (stereo not given)
[7]
  growth inhibition (GI): inactive
[1]
  Activity: inactive
[2]
  growth inhibition (GI): inactive
[4]
  inhibition: inactive

## CCCCc1cncc(C(=O)C2CCN(C)C2=O)c1 (stereo not given)
[7]
  growth inhibition (GI): inactive
[1]
  Activity: inactive
[2]
  growth inhibition (GI): inactive
[4]
  inhibition: inactive

## CN1CCC(C(=O)c2cncc(-c3cccc([N+](=O)[O-])c3)c2)C1=O (stereo not given)
[1]
  Activity: inactive
[2]
  growth inhibition (GI): inactive
[3]
  Activity: >100
[4]
  inhibition: inactive

## CC(=O)c1ccc(-c2cncc(C(=O)C3CCN(C)C3=O)c2)s1 (stereo not given)
[7]
  growth inhibition (GI): inactive
[1]
  Activity: inactive
[2]
  growth inhibition (GI): inactive
[4]
  inhibition: inactive

## CN1CCC(C(=O)c2cncc(-c3ccc(Cl)cc3)c2)C1=O (stereo not given)
[7]
  growth inhibition (GI): inactive
[1]
  Activity: inactive
[2]
  growth inhibition (GI): inactive

## CN1CCC(C(=O)c2cncc(-c3cccc(Cl)c3Cl)c2)C1=O (stereo not given)
[5]
  MIC: 0.0093 µM (≈ 3.25 ng/mL)

## CN1CCC[C@H]1c1cccnc1 [NICOTINE]
[20]
  half-life: 2 h

## CC(=O)Oc1ccc(-c2cncc(C(=O)C3CCN(C)C3=O)c2)cc1 (stereo not given)
[1]
  Activity: inactive
[3]
  Activity: >100
[4]
  inhibition: inactive
[18]
  Activity: >100

## CN1CCC(C(=O)c2cncc(-c3cccc4ccccc34)c2)C1=O (stereo not given)
[7]
  growth inhibition (GI): inactive
[1]
  Activity: inactive
[2]
  growth inhibition (GI): inactive

## CN1CCC(C(=O)c2cncc(-c3ccc(Cl)cc3Cl)c2)C1=O (stereo not given)
[5]
  MIC: 0.00286 µM (≈ 0.999 ng/mL)

## CN1CCC(C(=O)c2cncc(-c3cccc(C=O)c3)c2)C1=O (stereo not given)
[7]
  growth inhibition (GI): inactive
[1]
  Activity: inactive
[2]
  growth inhibition (GI): inactive
[3]
  Activity: >100
[4]
  inhibition: inactive

## CN1CCC(C(=O)c2cncc(-c3ccc(C=O)cc3)c2)C1=O (stereo not given)
[1]
  Activity: inactive
[2]
  growth inhibition (GI): inactive
[3]
  Activity: >100

## CN1CCC(C(=O)c2cncc(C3CC3)c2)C1=O (stereo not given)
[7]
  growth inhibition (GI): inactive
[1]
  Activity: inactive
[2]
  growth inhibition (GI): inactive
[4]
  inhibition: inactive
